Data as given in patent US20230000832A1, “USE OF NEUROPILIN ANTAGONISTS FOR THE TREATMENT OF ENDOMETRIOSIS” (INSERM (Institut National de la Santé et de la Recherche …, priority 2019, published 2023).
“Also recorded” adds a separate entry of the source.

Experiments:
[1] = system: human primary unmodified endometrial cell line (TH-EM1); assay: Cell proliferation assay (WST-1) on primary endometrial cells; assay type: cell-based; conditions: for endometrial growth inhibition: high concentration 10^−5M, since 2 days (D2) of exposure; for exposure time to reach maximum efficiency: low concentration between 10^−6 and 10^−7 M, effect stable at D5
Protocol: (§1) The human primary unmodified endometrial cell line (TH-EM1) describes by Gogusev j et al. 2019 is cultured with Dulbecco modified Eagle medium supplemented with 10% of fetal calf serum (FCS), L-glutamine, and antibiotics (Invitrogen-Thermo Fisher, Cergy-Pontoise, France). Cells were plated in 96-well plates or in 12-well plates to study cell proliferation or apoptosis, respectively.
Cells were plated in 200 μL/well in 96-well plates at 10^4 cells/well and were treated or not with Neuropilin antagonists (NRPa) such as NRPa-47, NRPa-48 at several concentration (10^−5 to 5·10^−8M) alone or in association with different concentrations of progestatif drugs such as Lutenyl® (Nomegestrol acetate) at 3·10^−5 M during 48 h, 72 h or 120 h. WST-1 (Roche®, France) was added for 2 h, then Optical Density was analyzed with a microplate reader (Microplate Manager 5.2, Bio-Rad) at 490 nm to determine the cell viability.

[2] = system: human primary unmodified endometrial cell line (TH-EM1); assay: Apoptosis assay (Annexin-V/7AAD, flow cytometry); assay type: cell-based; conditions: 10^−6 M, 72 h, versus untreated and DMSO treated cells
Protocol: as §1
Cells were plated in 2000 μL/well in 12-well plates at 5·10^5 cells/well and were treated or not with Neuropilin antagonists (NRPa) such as NRPa-47, NRPa-48 during 48 h to 72 h at 10^−6M. Then, cells are harvested and stained using Annexin-V/7AAD kit protocol following manufacturer's recommendation. Then, stained cells were analyzed on a fluorescence activated cell sorter (FACS) Calibur flow cytometer (Becton Dickinson Co, Mountain View, Calif.) and data analysis was performed with Flowjo software.

Row | SMILES | inhibition at 10 µM ([1]; Homo sapiens, 10^−5M, after 48 h (D2), consistent at 72 h (D3), read-out: decrease of cell survival / inhibition of endometrial cells) [%] | IC50 on primary endometrial cell proliferation ([1]; NRPa alone, concentration range, time course D2 to D5, approximative/calculated) | effect of association with progestogen on cell growth inhibition ([1]; NRPa-47 5·10^−7M (6·10^−7 M) with Lutenyl (Nomegestrol acetate) 3·10^−5 M) | endometrial growth inhibition [1] | exposure time to reach maximum efficiency [1] [days] | induction of apoptosis and necrosis / cell death of endometrial cells [2] | IC50 ([1]; Homo sapiens, NRPa alone, approximative, same value restated in nM) [nM] | IC50 ([1]; Homo sapiens, NRPa alone, concentration range, time course D2 to D5, approximative/calculated) [nM] | effect of association with progestogen on cell growth inhibition ([1]; NRPa-48 5·10^−8M with Lutenyl (Nomegestrol acetate) 3·10^−5 M)
1 | Cc1ccc(-c2nc3ccccc3[nH]2)cc1NC(=S)NC(=O)c1ccc2c(c1)OCCO2 [NRPa-47, N-[5-(1H-benzimidazol-2-yl)-2-methylphenyl]-N′-(2,3-dihydro-1,4-benzodioxin-6-ylcarbonyl)thiourea] | 80 | 10^−6 to 10^−7 M | Additif effect; also recorded: additive effect | rapid endometrial growth inhibition | 3 | induction of apoptosis; also recorded: induced endometrial cell death | – | – | –
2 | O=C(NC(=S)Nc1cccc(-c2nc3ccccc3[nH]2)c1)c1ccc2c(c1)OCCO2 [NRPa-48, N-[3-(1H-benzimidazol-2-yl)phenyl]-N′-(2,3-dihydro-1,4-benzodioxin-6-ylcarbonyl)thiourea] | – | – | – | rapid endometrial growth inhibition | 3 | induction of apoptosis; also recorded: induced endometrial cell death | ~100 | 100 | synergistic effect
